Reference: patent US9770026B2, “Substituted pyrimidine compound and uses thereof” (Shenyang Sinochem Agrochemicals R&D Co., Ltd., priority 2012, dated 2017)

Test system: Diamond back moth
Assay: insecticidal activity against diamond back moth, airbrush spray
Type: in vivo
Conditions: 600 ppm, mortality after 72 hrs
How it was run: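 Airbrush leaf-disc spray test: both faces of 2 cm cabbage discs received 0.5 ml of test solution at 0.7 kg/cm^2. Solutions were made in acetone:methanol (1:1) and brought to concentration with 0.1% Tween 80 in water. Ten second-instar larvae per disc, triplicates, were held at 25° C and 60˜70% R.H., with mortality recorded at 72 hrs.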

Row | SMILES | control (test results against diamond back moth) [%]
1 | COc1ccc(Oc2ccc(CCNc3ncnc(C)c3Cl)cn2)cc1 [III-19] | 100
2 | CCc1ncnc(NCCc2ccc(Oc3ccccc3)nc2)c1Cl [III-181] | 100
3 | CCc1ncnc(NCCc2ccc(Oc3ccc(OC)cc3)nc2)c1Cl [III-199] | 100
4 | CCc1ncnc(NCCc2ccc(Oc3cccc(C(F)(F)F)c3)nc2)c1Cl [III-201] | 100

Test system: armyworm
Assay: bioactivity test against armyworm, airbrush spray
Type: in vivo
Conditions: 10 mg/L

Row | SMILES | Insecticidal activity against armyworm (%)
5 | CCc1ncnc(NCCc2ccc(Oc3ccc(OC)cc3)nc2)c1Cl [III-199] | 64

Same assay, conditions: 100 mg/L

Row | SMILES | Insecticidal activity against armyworm (%)
6 | CCc1ncnc(NCCc2ccc(Oc3ccc(OC)cc3)nc2)c1Cl [III-199] | 100

Same assay, conditions: 600 mg/L

Row | SMILES | Insecticidal activity against armyworm (%)
7 | CCc1ncnc(NCCc2ccc(Oc3ccc(OC)cc3)nc2)c1Cl [III-199] | 100

Same assay, conditions: 100 ppm, mortality after 72 h

Row | SMILES | control (test results against armyworm) [%]
8 | CCc1ncnc(NCCc2ccc(Oc3ccc(OC)cc3)nc2)c1Cl [III-199] | 100

Same assay, conditions: 600 ppm, mortality after 72 h

Row | SMILES | control (test results against armyworm) [%]
9 | COc1ccc(Oc2ccc(CCNc3ncnc(C)c3Cl)cn2)cc1 [III-19] | 100
10 | CCc1ncnc(NCCc2ccc(Oc3ccccc3)nc2)c1Cl [III-181] | 100
11 | CCc1ncnc(NCCc2ccc(Oc3ccc(OC)cc3)nc2)c1Cl [III-199] | 100
12 | CCc1ncnc(NCCc2ccc(Oc3cccc(C(F)(F)F)c3)nc2)c1Cl [III-201] | 100

Test system: Green peach aphids (Myzus Persicae Sulzer)
Assay: bioactivity test against green peach aphid, airbrush foliar spray
Type: in vivo
Conditions: 10 mg/L; contrastive test
How it was run: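 Aphids (15-30 per cabbage leaf disc) on moist filter paper were airbrush-sprayed at 10 psi, 0.5 mL, with compound from acetone:methanol (1:1) diluted in water with 0.1% tween 80. Held at 25±1 C, 60±5% RH; survivors counted after 48 hrs to give death rates.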

Row | SMILES | Insecticidal activity against peach aphid (%)
13 | CCc1ncnc(NCCc2ccc(Oc3ccccc3)nc2)c1Cl [III-181] | 100

Same assay, conditions: 100 mg/L; contrastive test

Row | SMILES | Insecticidal activity against peach aphid (%)
14 | CCc1ncnc(NCCc2ccc(Oc3ccccc3)nc2)c1Cl [III-181] | 100

Same assay, conditions: 600 mg/L; contrastive test

Row | SMILES | Insecticidal activity against peach aphid (%)
15 | CCc1ncnc(NCCc2ccc(Oc3ccccc3)nc2)c1Cl [III-181] | 100

Same assay, conditions: 10 ppm, death rate after 48 hrs

Row | SMILES | control (test results against green peach aphid) [%]
16 | CCc1ncnc(NCCc2ccc(Oc3ccccc3)nc2)c1Cl [III-181] | 100

Same assay, conditions: 100 ppm, death rate after 48 hrs

Row | SMILES | control (test results against green peach aphid) [%]
17 | CCc1ncnc(NCCc2ccc(Oc3ccccc3)nc2)c1Cl [III-181] | 100
18 | CCc1ncnc(NCCc2ccc(Oc3ccc(OC)cc3)nc2)c1Cl [III-199] | 100
19 | CCc1ncnc(NCCc2ccc(Oc3cccc(C(F)(F)F)c3)nc2)c1Cl [III-201] | 100

Same assay, conditions: 600 ppm, death rate after 48 hrs

Row | SMILES | control (test results against green peach aphid) [%]
20 | COc1ccc(Oc2ccc(CCNc3ncnc(C)c3Cl)cn2)cc1 [III-19] | 100
21 | CCc1ncnc(NCCc2ccc(Oc3ccccc3)nc2)c1Cl [III-181] | 100
22 | CCc1ncnc(NCCc2ccc(Oc3ccc(OC)cc3)nc2)c1Cl [III-199] | 100
23 | CCc1ncnc(NCCc2ccc(Oc3cccc(C(F)(F)F)c3)nc2)c1Cl [III-201] | 100

Test system: carmine spider mite
Assay: bioactivity test against carmine spider mite, airbrush spray
Type: in vivo
Conditions: 10 mg/L; contrastive test
How it was run: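 Broadbean seedlings infested with adult mites were sprayed with compound (acetone/methanol stock diluted in 0.1% Tween 80 water) by airbrush at 0.7 kg/cm^2, 0.5 ml. Three replicates were run. Mortality was scored after 72 hrs.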

Row | SMILES | Insecticidal activity against carmine spider mite (% ) [%]
24 | CCc1ncnc(NCCc2ccc(Oc3ccc(OC)cc3)nc2)c1Cl [III-199] | 87

Same assay, conditions: 100 mg/L; contrastive test

Row | SMILES | Insecticidal activity against carmine spider mite (% ) [%]
25 | CCc1ncnc(NCCc2ccc(Oc3ccccc3)nc2)c1Cl [III-181] | 100
26 | CCc1ncnc(NCCc2ccc(Oc3ccc(OC)cc3)nc2)c1Cl [III-199] | 100

Same assay, conditions: 600 mg/L; contrastive test

Row | SMILES | Insecticidal activity against carmine spider mite (% ) [%]
27 | CCc1ncnc(NCCc2ccc(Oc3ccccc3)nc2)c1Cl [III-181] | 100
28 | CCc1ncnc(NCCc2ccc(Oc3ccc(OC)cc3)nc2)c1Cl [III-199] | 100

Same assay, conditions: 100 ppm, mortality after 72 hrs

Row | SMILES | control against carmine spider mite [%]
29 | CCc1ncnc(NCCc2ccc(Oc3ccccc3)nc2)c1Cl [III-181] | 100
30 | CCc1ncnc(NCCc2ccc(Oc3ccc(OC)cc3)nc2)c1Cl [III-199] | 100

Same assay, conditions: 600 ppm, mortality after 72 hrs

Row | SMILES | control against carmine spider mite [%]
31 | COc1ccc(Oc2ccc(CCNc3ncnc(C)c3Cl)cn2)cc1 [III-19] | 100
32 | CCc1ncnc(NCCc2ccc(Oc3ccccc3)nc2)c1Cl [III-181] | 100
33 | CCc1ncnc(NCCc2ccc(Oc3ccc(OC)cc3)nc2)c1Cl [III-199] | 100
34 | CCc1ncnc(NCCc2ccc(Oc3cccc(C(F)(F)F)c3)nc2)c1Cl [III-201] | 100

Test system: corn rust
Assay: protectant activity in vivo against corn rust
Conditions: 100 ppm

Row | SMILES | protectant activity against corn rust in vivo [%]
35 | CCc1ncnc(NCCc2ccc(Oc3cccc(C(F)(F)F)c3)nc2)c1Cl [III-201] | 100

Same assay, conditions: 400 ppm

Row | SMILES | protectant activity against corn rust in vivo [%]
36 | COc1ccc(Oc2ccc(CCNc3ncnc(C)c3Cl)cn2)cc1 [III-19] | 100
37 | CCc1ncnc(NCCc2ccc(Oc3ccccc3)nc2)c1Cl [III-181] | 100
38 | CCc1ncnc(NCCc2ccc(Oc3ccc(OC)cc3)nc2)c1Cl [III-199] | 100
39 | CCc1ncnc(NCCc2ccc(Oc3cccc(C(F)(F)F)c3)nc2)c1Cl [III-201] | 100

Test system: wheat powdery mildew
Assay: protectant activity in vivo against wheat powdery mildew
Conditions: 400 ppm

Row | SMILES | protectant activity against wheat powdery mildew in vivo [%]
40 | COc1ccc(Oc2ccc(CCNc3ncnc(C)c3Cl)cn2)cc1 [III-19] | 100
41 | CCc1ncnc(NCCc2ccc(Oc3ccccc3)nc2)c1Cl [III-181] | 100
42 | CCc1ncnc(NCCc2ccc(Oc3ccc(OC)cc3)nc2)c1Cl [III-199] | 100
43 | CCc1ncnc(NCCc2ccc(Oc3cccc(C(F)(F)F)c3)nc2)c1Cl [III-201] | 100

Test system: cucumber downy mildew
Assay: protectant activity in vivo against cucumber downy mildew
Conditions: 6.25 mg/L; protectant activity

Row | SMILES | control effect against cucumber downy mildew (%)
44 | COc1ccc(Oc2ccc(CCNc3ncnc(C)c3Cl)cn2)cc1 [III-19] | 95

Same assay, conditions: 12.5 mg/L; protectant activity

Row | SMILES | control effect against cucumber downy mildew (%)
45 | COc1ccc(Oc2ccc(CCNc3ncnc(C)c3Cl)cn2)cc1 [III-19] | 98
46 | CCc1ncnc(NCCc2ccc(Oc3cccc(C(F)(F)F)c3)nc2)c1Cl [III-201] | 98

Same assay, conditions: 25 mg/L; protectant activity

Row | SMILES | control effect against cucumber downy mildew (%)
47 | COc1ccc(Oc2ccc(CCNc3ncnc(C)c3Cl)cn2)cc1 [III-19] | 100
48 | CCc1ncnc(NCCc2ccc(Oc3ccccc3)nc2)c1Cl [III-181] | 100
49 | CCc1ncnc(NCCc2ccc(Oc3cccc(C(F)(F)F)c3)nc2)c1Cl [III-201] | 100

Same assay, conditions: 50 mg/L; protectant activity

Row | SMILES | control effect against cucumber downy mildew (%)
50 | COc1ccc(Oc2ccc(CCNc3ncnc(C)c3Cl)cn2)cc1 [III-19] | 100
51 | CCc1ncnc(NCCc2ccc(Oc3ccccc3)nc2)c1Cl [III-181] | 100
52 | CCc1ncnc(NCCc2ccc(Oc3cccc(C(F)(F)F)c3)nc2)c1Cl [III-201] | 100

Same assay, conditions: 100 mg/L; protectant activity

Row | SMILES | control effect against cucumber downy mildew (%)
53 | COc1ccc(Oc2ccc(CCNc3ncnc(C)c3Cl)cn2)cc1 [III-19] | 100
54 | CCc1ncnc(NCCc2ccc(Oc3ccccc3)nc2)c1Cl [III-181] | 100
55 | CCc1ncnc(NCCc2ccc(Oc3cccc(C(F)(F)F)c3)nc2)c1Cl [III-201] | 100

Same assay, conditions: 400 mg/L; protectant activity

Row | SMILES | control effect against cucumber downy mildew (%)
56 | COc1ccc(Oc2ccc(CCNc3ncnc(C)c3Cl)cn2)cc1 [III-19] | 100
57 | CCc1ncnc(NCCc2ccc(Oc3ccccc3)nc2)c1Cl [III-181] | 100
58 | CCc1ncnc(NCCc2ccc(Oc3cccc(C(F)(F)F)c3)nc2)c1Cl [III-201] | 100

Same assay, conditions: 25 ppm

Row | SMILES | protectant activity against cucumber downy mildew in vivo [%]
59 | COc1ccc(Oc2ccc(CCNc3ncnc(C)c3Cl)cn2)cc1 [III-19] | 100
60 | CCc1ncnc(NCCc2ccc(Oc3ccccc3)nc2)c1Cl [III-181] | 100
61 | CCc1ncnc(NCCc2ccc(Oc3cccc(C(F)(F)F)c3)nc2)c1Cl [III-201] | 100

Same assay, conditions: 50 ppm

Row | SMILES | protectant activity against cucumber downy mildew in vivo [%]
62 | COc1ccc(Oc2ccc(CCNc3ncnc(C)c3Cl)cn2)cc1 [III-19] | 100
63 | CCc1ncnc(NCCc2ccc(Oc3ccccc3)nc2)c1Cl [III-181] | 100
64 | CCc1ncnc(NCCc2ccc(Oc3cccc(C(F)(F)F)c3)nc2)c1Cl [III-201] | 100

Same assay, conditions: 100 ppm

Row | SMILES | protectant activity against cucumber downy mildew in vivo [%]
65 | COc1ccc(Oc2ccc(CCNc3ncnc(C)c3Cl)cn2)cc1 [III-19] | 100
66 | CCc1ncnc(NCCc2ccc(Oc3ccccc3)nc2)c1Cl [III-181] | 100
67 | CCc1ncnc(NCCc2ccc(Oc3ccc(OC)cc3)nc2)c1Cl [III-199] | 100
68 | CCc1ncnc(NCCc2ccc(Oc3cccc(C(F)(F)F)c3)nc2)c1Cl [III-201] | 100

Same assay, conditions: 400 ppm

Row | SMILES | protectant activity against cucumber downy mildew in vivo [%]
69 | COc1ccc(Oc2ccc(CCNc3ncnc(C)c3Cl)cn2)cc1 [III-19] | 100
70 | CCc1ncnc(NCCc2ccc(Oc3ccccc3)nc2)c1Cl [III-181] | 100
71 | CCc1ncnc(NCCc2ccc(Oc3ccc(OC)cc3)nc2)c1Cl [III-199] | 100
72 | CCc1ncnc(NCCc2ccc(Oc3cccc(C(F)(F)F)c3)nc2)c1Cl [III-201] | 100
